Results taken from the supplement of paper PMC10627819.

How the values were obtained:
Assay in all cases: Bliss interaction score (quartile over a dose matrix) (fitness difference); higher = more antagonism (negative = synergy)
S. pneumoniae D39V = tested on: S. pneumoniae D39V
How it was run: (§1)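 Fitness was OD595 at entry into stationary phase divided by the plate's robust no-drug mean and capped at 1; single-drug fitness was inferred from combination data. The Bliss score is observed minus expected (product) fitness, summarised by quartiles over technical, biological and donor/recipient replicates.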

B. subtilis 168 = tested on: B. subtilis 168
How it was run: as §1

S. aureus Newman = tested on: S. aureus Newman
How it was run: as §1

S. aureus DSM 20231 = tested on: S. aureus DSM 20231
How it was run: as §1
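Also: first quartile when negative (synergy) and third quartile when positive (antagonism).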

Structure (SMILES) | Bliss interaction score (S. pneumoniae D39V) | Bliss interaction score (B. subtilis 168) | Bliss interaction score (S. aureus Newman) | Bliss interaction score (S. aureus DSM 20231) | Bliss interaction score (S. pneumoniae D39V; main component drawn) | Bliss interaction score (B. subtilis 168; main component drawn) | Bliss interaction score (S. aureus Newman; main component drawn) | Bliss interaction score (S. aureus DSM 20231; main component drawn)
CN(C)[C@@H]1C(O)=C(C(N)=O)C(=O)[C@@]2(O)C(O)=C3C(=O)c4c(O)ccc(Cl)c4[C@@](C)(O)[C@H]3C[C@@H]12 [Clortetracycline] + Cc1cc(NS(=O)(=O)c2ccc(N)cc2)no1 [Sulfamethoxazol] | -0.0455 | 0.0702 | 0.0566 | -0.058 |  |  |  | 
CN(C)[C@@H]1C(O)=C(C(N)=O)C(=O)[C@@]2(O)C(O)=C3C(=O)c4c(O)ccc(Cl)c4[C@@](C)(O)[C@H]3C[C@@H]12 [Clortetracycline] + Cc1ncc([N+](=O)[O-])n1CCO [Metronidazole] | 0.104 | 0.141 | 0.0714 | 0.0551 |  |  |  | 
CN(C)[C@@H]1C(O)=C(C(N)=O)C(=O)[C@@]2(O)C(O)=C3C(=O)c4c(O)ccc(Cl)c4[C@@](C)(O)[C@H]3C[C@@H]12 [Clortetracycline] + Cc1onc(-c2ccccc2)c1C(=O)N[C@@H]1C(=O)N2[C@@H]1SC(C)(C)[C@@H]2C(=O)O [Oxacillin] | 0.125 | 0.0896 | 0.0386 | 0.0471 |  |  |  | 
CN(C)[C@@H]1C(O)=C(C(N)=O)C(=O)[C@@]2(O)C(O)=C3C(=O)c4c(O)ccc(Cl)c4[C@@](C)(O)[C@H]3C[C@@H]12 [Clortetracycline] + Clc1ccc(COC(Cn2ccnc2)c2ccc(Cl)cc2Cl)c(Cl)c1 [Miconazole] | 0.0793 | 0.0788 | 0.0716 | 0.0511 |  |  |  | 
CN(C)[C@@H]1C(O)=C(C(N)=O)C(=O)[C@@]2(O)C(O)=C3C(=O)c4c(O)ccc(Cl)c4[C@@](C)(O)[C@H]3C[C@@H]12 [Clortetracycline] + Cn1nnc(-c2ccc(-c3ccc(N4C[C@H](CO)OC4=O)cc3F)cn2)n1 [Tedizolid] | 0.0607 | -0.105 | -0.0562 | -0.0502 |  |  |  | 
CN(C)[C@@H]1C(O)=C(C(N)=O)C(=O)[C@@]2(O)C(O)=C3C(=O)c4c(O)ccc(Cl)c4[C@@](C)(O)[C@H]3C[C@@H]12 [Clortetracycline] + N[C@@H]1CONC1=O [CycloserineD] | 0.199 | 0.0921 | 0.0727 | -0.118 |  |  |  | 
CN(C)[C@@H]1C(O)=C(C(N)=O)C(=O)[C@@]2(O)C(O)=C3C(=O)c4c(O)ccc(Cl)c4[C@@](C)(O)[C@H]3C[C@@H]12 [Clortetracycline] + O=C1CN(/N=C/c2ccc([N+](=O)[O-])o2)C(=O)N1 [Nitrofurantoin] | -0.0355 | -0.158 | -0.0647 | 0.016 |  |  |  | 
CN(C)[C@@H]1C(O)=C(C(N)=O)C(=O)[C@@]2(O)C(O)=C3C(=O)c4c(O)ccc(Cl)c4[C@@](C)(O)[C@H]3C[C@@H]12 [Clortetracycline] + O=C(O[C@@H]1Cc2c(O)cc(O)cc2O[C@@H]1c1cc(O)c(O)c(O)c1)c1cc(O)c(O)c(O)c1 [EGCG] | -0.0892 | -0.096 | -0.0462 | 0.114 |  |  |  | 
CN(C)[C@@H]1C(O)=C(C(N)=O)C(=O)[C@@]2(O)C(O)=C3C(=O)c4c(O)ccc(Cl)c4[C@@](C)(O)[C@H]3C[C@@H]12 [Clortetracycline] + Oc1cc(Cl)ccc1Oc1ccc(Cl)cc1Cl [Triclosan] | 0.117 | 0.0578 | 0.021 | -0.0936 |  |  |  | 
COc1cccc2c1C(=O)c1c(O)c3c(c(O)c1C2=O)C[C@@](O)(C(=O)CO)C[C@@H]3O[C@H]1C[C@H](N)[C@H](O)[C@H](C)O1 [Doxorubicin] + CC1(C)S[C@@H]2[C@H](NC(=O)Cc3ccccc3)C(=O)N2[C@H]1C(=O)O [PenicillinG] | 0.0966 | 0.0777 | -0.0818 | 0.0914 |  |  |  | 
COc1cccc2c1C(=O)c1c(O)c3c(c(O)c1C2=O)C[C@@](O)(C(=O)CO)C[C@@H]3O[C@H]1C[C@H](N)[C@H](O)[C@H](C)O1 [Doxorubicin] + CC(=O)O[C@H]1C[C@@]2(C)[C@@H](C[C@@H](O)[C@H]3[C@@]4(C)CC[C@@H](O)[C@@H](C)[C@@H]4CC[C@@]32C)/C1=C(\CCC=C(C)C)C(=O)O [Fusidic acid] | -0.0805 | 0.0613 | 0.0367 | -0.0285 |  |  |  | 
COc1cccc2c1C(=O)c1c(O)c3c(c(O)c1C2=O)C[C@@](O)(C(=O)CO)C[C@@H]3O[C@H]1C[C@H](N)[C@H](O)[C@H](C)O1 [Doxorubicin] + CC[C@H]1OC(=O)[C@H](C)C(=O)[C@H](C)[C@@H](O[C@@H]2O[C@H](C)C[C@H](N(C)C)[C@H]2O)[C@](C)(OC)C[C@@H](C)C(=O)[C@H](C)[C@H]2N(CCCCn3cnc(-c4cccnc4)c3)C(=O)O[C@]12C [Telithromycin] | -0.0361 | 0.0872 | 0.0489 | -0.0292 |  |  |  | 
COc1cccc2c1C(=O)c1c(O)c3c(c(O)c1C2=O)C[C@@](O)(C(=O)CO)C[C@@H]3O[C@H]1C[C@H](N)[C@H](O)[C@H](C)O1 [Doxorubicin] + CC[C@H]1OC(=O)[C@H](C)[C@@H](O[C@H]2C[C@@](C)(OC)[C@@H](O)[C@H](C)O2)[C@H](C)[C@@H](O[C@@H]2O[C@H](C)C[C@H](N(C)C)[C@H]2O)[C@](C)(O)C[C@@H](C)C(=O)[C@H](C)[C@@H](O)[C@]1(C)O [Erythromycin] | 0.0705 | 0.0769 | 0.0828 | 0.0463 |  |  |  | 
COc1cccc2c1C(=O)c1c(O)c3c(c(O)c1C2=O)C[C@@](O)(C(=O)CO)C[C@@H]3O[C@H]1C[C@H](N)[C@H](O)[C@H](C)O1 [Doxorubicin] + CN[C@H](CC(C)C)C(=O)N[C@H]1C(=O)N[C@@H](CC(N)=O)C(=O)N[C@H]2C(=O)N[C@H]3C(=O)N[C@H](C(=O)N[C@H](C(=O)O)c4cc(O)cc(O)c4-c4cc3ccc4O)[C@H](O[C@H]3C[C@](C)(N)[C@@H](O)[C@H](C)O3)c3ccc(c(Cl)c3)Oc3cc2cc(c3O[C@@H]2O[C@H](CO)[C@@H](O)[C@H](O)[C@H]2O[C@H]2C[C@](C)(NCc3ccc(-c4ccc(Cl)cc4)cc3)[C@@H](O)[C@H](C)O2)Oc2ccc(cc2Cl)[C@H]1O [Oritavancin] | 0.0571 | -0.0288 | 0.114 | 0.0678 |  |  |  | 
COc1cccc2c1C(=O)c1c(O)c3c(c(O)c1C2=O)C[C@@](O)(C(=O)CO)C[C@@H]3O[C@H]1C[C@H](N)[C@H](O)[C@H](C)O1 [Doxorubicin] + CO[C@@]12[C@H](COC(N)=O)C3=C(C(=O)C(C)=C(N)C3=O)N1C[C@@H]1N[C@@H]12 [MitomycinC] | -0.0709 | -0.269 | 0.122 | -0.0314 |  |  |  | 
COc1cccc2c1C(=O)c1c(O)c3c(c(O)c1C2=O)C[C@@](O)(C(=O)CO)C[C@@H]3O[C@H]1C[C@H](N)[C@H](O)[C@H](C)O1 [Doxorubicin] + C[C@H]1c2cccc(O)c2C(=O)C2=C(O)[C@]3(O)C(=O)C(C(N)=O)=C(O)[C@@H](N(C)C)[C@@H]3[C@@H](O)[C@@H]21 [Doxycycline] | -0.144 | 0.0384 | -0.0163 | 0.0574 |  |  |  | 
COc1cccc2c1C(=O)c1c(O)c3c(c(O)c1C2=O)C[C@@](O)(C(=O)CO)C[C@@H]3O[C@H]1C[C@H](N)[C@H](O)[C@H](C)O1 [Doxorubicin] + Oc1cc(Cl)ccc1Oc1ccc(Cl)cc1Cl [Triclosan] | -0.0416 | -0.0317 | -0.0426 | -0.0295 |  |  |  | 
C[C@H]1c2cccc(O)c2C(=O)C2=C(O)[C@]3(O)C(=O)C(C(N)=O)=C(O)[C@@H](N(C)C)[C@@H]3[C@@H](O)[C@@H]21 [Doxycycline] + CC1(C)S[C@@H]2[C@H](NC(=O)Cc3ccccc3)C(=O)N2[C@H]1C(=O)O [PenicillinG] | 0.106 | 0.108 | -0.027 | 0.0444 |  |  |  | 
C[C@H]1c2cccc(O)c2C(=O)C2=C(O)[C@]3(O)C(=O)C(C(N)=O)=C(O)[C@@H](N(C)C)[C@@H]3[C@@H](O)[C@@H]21 [Doxycycline] + CC(=O)O[C@H]1C[C@@]2(C)[C@@H](C[C@@H](O)[C@H]3[C@@]4(C)CC[C@@H](O)[C@@H](C)[C@@H]4CC[C@@]32C)/C1=C(\CCC=C(C)C)C(=O)O [Fusidic acid] | -0.0559 | -0.049 | 0.0131 | -0.0196 |  |  |  | 
C[C@H]1c2cccc(O)c2C(=O)C2=C(O)[C@]3(O)C(=O)C(C(N)=O)=C(O)[C@@H](N(C)C)[C@@H]3[C@@H](O)[C@@H]21 [Doxycycline] + CCCCCCCCCC(=O)N[C@@H]1[C@H]([C@@H]([C@H](O[C@H]1OC2=C3C=C4C=C2OC5=C(C=C(C=C5)[C@H]([C@H]6C(=O)N[C@@H](C7=C(C(=CC(=C7)O)OC8[C@H]([C@H]([C@@H]([C@H](O8)CO)O)O)O)C9=C(C=CC(=C9)[C@H](C(=O)N6)NC(=O)[C@@H]4NC(=O)[C@@H]1C2=CC(=CC(=C2)OC2=C(C=CC(=C2)[C@H](C(=O)N[C@H](CC2=CC(=C(O3)C=C2)Cl)C(=O)N1)N)O)O)O)C(=O)O)O[C@H]1[C@@H]([C@H]([C@@H]([C@H](O1)CO)O)O)NC(=O)C)Cl)CO)O)O [Teicoplanin] |  |  |  |  | -0.0489 | 0.0442 | 0.0478 | 0.118
